Experimental data from the NIST ThermoML archive (doi:10.1021/je1001413).
Numbers after ± are expanded uncertainties.

Details: Liquid, Vibrating tube method

CC(C)CCCCCCCOC(=O)c1ccccc1C(=O)OCCCCCCCC(C)C
Details	mass density [kg/m3]
313.15 K, 100 kPa	952.6 ± 2.9
313.15 K, 200 kPa	952.6 ± 2.9
313.15 K, 400 kPa	952.8 ± 2.9
313.15 K, 620 kPa	952.9 ± 2.9
313.15 K, 800 kPa	953 ± 2.9
313.15 K, 1030 kPa	953.1 ± 2.9
313.15 K, 2010 kPa	953.7 ± 2.9
313.15 K, 3000 kPa	954.3 ± 2.9
313.15 K, 4000 kPa	955 ± 2.9
313.15 K, 5020 kPa	955.5 ± 2.9
313.15 K, 5990 kPa	956.2 ± 2.9
313.15 K, 7030 kPa	956.7 ± 2.9
313.15 K, 8000 kPa	957.4 ± 2.9
313.15 K, 9020 kPa	957.9 ± 2.9
313.15 K, 10010 kPa	958.5 ± 2.9
313.15 K, 15010 kPa	961.4 ± 2.9
313.15 K, 20000 kPa	964.2 ± 2.9
313.15 K, 25030 kPa	967 ± 2.9
313.15 K, 30000 kPa	969.7 ± 2.9
313.15 K, 35020 kPa	972.2 ± 2.9
313.15 K, 40020 kPa	974.8 ± 2.9
313.15 K, 45010 kPa	977.2 ± 2.9
313.15 K, 49970 kPa	979.7 ± 2.9
313.15 K, 55000 kPa	982 ± 2.9
313.15 K, 59980 kPa	984.4 ± 3
313.15 K, 64970 kPa	986.6 ± 3
323.15 K, 100 kPa	945.4 ± 2.8
323.15 K, 210 kPa	945.5 ± 2.8
323.15 K, 400 kPa	945.6 ± 2.8
323.15 K, 600 kPa	945.7 ± 2.8
323.15 K, 800 kPa	945.9 ± 2.8
323.15 K, 1000 kPa	946 ± 2.8
323.15 K, 2000 kPa	946.6 ± 2.8
323.15 K, 3030 kPa	947.2 ± 2.8
323.15 K, 4030 kPa	947.9 ± 2.8
323.15 K, 5020 kPa	948.5 ± 2.8
323.15 K, 6010 kPa	949.1 ± 2.9
323.15 K, 7000 kPa	949.7 ± 2.9
323.15 K, 8000 kPa	950.3 ± 2.9
323.15 K, 9010 kPa	950.9 ± 2.9
323.15 K, 10020 kPa	951.6 ± 2.9
323.15 K, 15000 kPa	954.5 ± 2.9
323.15 K, 20010 kPa	957.5 ± 2.9
323.15 K, 25030 kPa	960.3 ± 2.9
323.15 K, 30010 kPa	963.2 ± 2.9
323.15 K, 34970 kPa	965.8 ± 2.9
323.15 K, 40000 kPa	968.5 ± 2.9
323.15 K, 45000 kPa	970.9 ± 2.9
323.15 K, 49980 kPa	973.5 ± 2.9
323.15 K, 54980 kPa	975.8 ± 2.9
323.15 K, 60000 kPa	978.3 ± 2.9
323.15 K, 65000 kPa	980.6 ± 2.9
333.15 K, 100 kPa	938.3 ± 2.8
333.15 K, 200 kPa	938.4 ± 2.8
333.15 K, 400 kPa	938.5 ± 2.8
333.15 K, 630 kPa	938.7 ± 2.8
333.15 K, 800 kPa	938.8 ± 2.8
333.15 K, 1000 kPa	938.9 ± 2.8
333.15 K, 2010 kPa	939.6 ± 2.8
333.15 K, 3000 kPa	940.2 ± 2.8
333.15 K, 4000 kPa	940.9 ± 2.8
333.15 K, 5000 kPa	941.5 ± 2.8
333.15 K, 6000 kPa	942.2 ± 2.8
333.15 K, 7030 kPa	942.8 ± 2.8
333.15 K, 7980 kPa	943.5 ± 2.8
333.15 K, 9010 kPa	944.1 ± 2.8
333.15 K, 10030 kPa	944.8 ± 2.8
333.15 K, 14990 kPa	947.9 ± 2.8
333.15 K, 20000 kPa	951 ± 2.9
333.15 K, 25000 kPa	953.8 ± 2.9
333.15 K, 30020 kPa	956.7 ± 2.9
333.15 K, 34990 kPa	959.4 ± 2.9
333.15 K, 39970 kPa	962.2 ± 2.9
333.15 K, 45020 kPa	964.8 ± 2.9
333.15 K, 50000 kPa	967.4 ± 2.9
333.15 K, 55020 kPa	969.8 ± 2.9
333.15 K, 60000 kPa	972.3 ± 2.9
333.15 K, 65000 kPa	974.7 ± 2.9
343.15 K, 100 kPa	931.2 ± 2.8
343.15 K, 220 kPa	931.3 ± 2.8
343.15 K, 430 kPa	931.5 ± 2.8
343.15 K, 610 kPa	931.6 ± 2.8
343.15 K, 810 kPa	931.8 ± 2.8
343.15 K, 1000 kPa	931.9 ± 2.8
343.15 K, 2000 kPa	932.6 ± 2.8
343.15 K, 3000 kPa	933.3 ± 2.8
343.15 K, 3980 kPa	934 ± 2.8
343.15 K, 5010 kPa	934.6 ± 2.8
343.15 K, 5980 kPa	935.3 ± 2.8
343.15 K, 7000 kPa	936 ± 2.8
343.15 K, 7990 kPa	936.6 ± 2.8
343.15 K, 9020 kPa	937.3 ± 2.8
343.15 K, 9980 kPa	937.9 ± 2.8
343.15 K, 15010 kPa	941.2 ± 2.8
343.15 K, 19990 kPa	944.3 ± 2.8
343.15 K, 25010 kPa	947.4 ± 2.8
343.15 K, 29980 kPa	950.4 ± 2.9
343.15 K, 35030 kPa	953.3 ± 2.9
343.15 K, 40030 kPa	956.1 ± 2.9
343.15 K, 45010 kPa	958.7 ± 2.9
343.15 K, 50050 kPa	961.4 ± 2.9
343.15 K, 55000 kPa	964 ± 2.9
343.15 K, 60000 kPa	966.5 ± 2.9
343.15 K, 65020 kPa	968.9 ± 2.9
353.15 K, 100 kPa	924.2 ± 2.8
353.15 K, 200 kPa	924.3 ± 2.8
353.15 K, 410 kPa	924.5 ± 2.8
353.15 K, 630 kPa	924.6 ± 2.8
353.15 K, 800 kPa	924.8 ± 2.8
353.15 K, 1010 kPa	924.9 ± 2.8
353.15 K, 2000 kPa	925.6 ± 2.8
353.15 K, 3000 kPa	926.3 ± 2.8
353.15 K, 3980 kPa	927 ± 2.8
353.15 K, 4990 kPa	927.7 ± 2.8
353.15 K, 6000 kPa	928.4 ± 2.8
353.15 K, 7000 kPa	929.1 ± 2.8
353.15 K, 8010 kPa	929.8 ± 2.8
353.15 K, 9000 kPa	930.5 ± 2.8
353.15 K, 10010 kPa	931.2 ± 2.8
353.15 K, 15040 kPa	934.6 ± 2.8
353.15 K, 20000 kPa	937.9 ± 2.8
353.15 K, 24970 kPa	941 ± 2.8
353.15 K, 29980 kPa	944.1 ± 2.8
353.15 K, 35010 kPa	947.1 ± 2.8
353.15 K, 40000 kPa	950 ± 2.9
353.15 K, 45000 kPa	952.7 ± 2.9
353.15 K, 49990 kPa	955.5 ± 2.9
353.15 K, 55000 kPa	958.1 ± 2.9
353.15 K, 60010 kPa	960.7 ± 2.9
353.15 K, 65020 kPa	963.2 ± 2.9
363.15 K, 100 kPa	917.2 ± 2.8
363.15 K, 200 kPa	917.3 ± 2.8
363.15 K, 420 kPa	917.4 ± 2.8
363.15 K, 600 kPa	917.6 ± 2.8
363.15 K, 800 kPa	917.7 ± 2.8
363.15 K, 990 kPa	917.9 ± 2.8
363.15 K, 2000 kPa	918.6 ± 2.8
363.15 K, 2980 kPa	919.4 ± 2.8
363.15 K, 3960 kPa	920.1 ± 2.8
363.15 K, 4970 kPa	920.9 ± 2.8
363.15 K, 5990 kPa	921.6 ± 2.8
363.15 K, 7020 kPa	922.3 ± 2.8
363.15 K, 7980 kPa	923 ± 2.8
363.15 K, 9030 kPa	923.8 ± 2.8
363.15 K, 10000 kPa	924.5 ± 2.8
363.15 K, 15000 kPa	928 ± 2.8
363.15 K, 19990 kPa	931.4 ± 2.8
363.15 K, 25010 kPa	934.7 ± 2.8
363.15 K, 30020 kPa	937.9 ± 2.8
363.15 K, 34980 kPa	940.9 ± 2.8
363.15 K, 39990 kPa	943.9 ± 2.8
363.15 K, 44980 kPa	946.8 ± 2.8
363.15 K, 49990 kPa	949.6 ± 2.9
363.15 K, 55000 kPa	952.3 ± 2.9
363.15 K, 60040 kPa	955 ± 2.9
363.15 K, 64990 kPa	957.6 ± 2.9
